# Assay results from patent US20120028897A1, “METHODS AND COMPOSITIONS FOR THE TREATMENT OF FLUID RETENTION DISORDERS” (priority 2008, published 2012).
# Entries after “also recorded” stand apart in the source; their conditions may differ.
# Legend:
# anesthetized rats [1] = assay: Renal potassium excretion during and after iv peptide infusion in anesthetized rats; type: in vivo, rat
# Procedure: (§1) Rats were not fasted prior to clearance experiments and ranged in weight from 250-340 g at the time of study. Anesthesia was induced with an intraperitoneal injection of pentobarbital sodium (55 mg/kg BW) and maintained at a surgical plane by intermittent intravenous supplementation. Core temperature was maintained at 37° C. by a servo-controlled, heated operating table. Animals breathed spontaneously through a PE240 cannula inserted into the trachea. A jugular vein was catheterized with PE50 cannula tubing for intravenous infusion of isotonic saline containing FITC-labeled inulin (0.4% W/V, Sigma, St Louis Mo.) and two PE10 cannulae, one for supplemental anesthetic and the other for peptide infusions (described below in the experimental protocol section). The ureters were exposed through a midline ventral incision and cannulated with PE10 tubing about one cm from each kidney. Urine was collected over 20 min periods and the volume estimated by weight. A femoral artery was cannulated with PE50 tubing for continuous measurement of arterial blood pressure and intermittent blood samples (50 μl), taken at the mid point of each urine collection.
# (§2) Arterial blood pressure was measured with a pressure transducer connected to a cardiovascular analyzer (Model 50110, Stoelting Instruments Wood Dale, Ill.). Left renal blood flow was measured in some rats with a flow probe positioned on the left renal artery and connected to a blood flow monitor (model 1 PRB probe and model T420 monitor, Transonic Systems Inc. Ithaca N.Y.). Arterial pressure, heart rate, and renal blood flow were digitized with an A/D converter (Keithley instruments, Cleveland, Ohio Model KUSB 3100) for display and storage on a Windows-based personal computer using open layers data acquisition software (Dtx_Ez, Data Translation Inc, Marlboro, Mass.). Sodium and potassium concentrations in plasma and urine were measured by flame photometry (Model 943, Instrumentation Laboratory Co., Lexington Mass.). Glomerular filtration rate (GFR) was measured as the renal clearance rate of FITC-labeled inulin
# (§3) After post-surgical equilibration (−60 min) and three 20 min control clearance periods, huUgnA or B was infused into the jugular vein at 10 μl/min over a 60 min period, followed by a return to isotonic saline for the remainder of the experiment. The infused doses of huUgnA were 12, 25, 50, 100, or 200 nmol/kg BW in a total of 38 rats; huUgnB doses were 9, 18, 35, 70, and 140 nmol/kg BW in 35 rats. A UgnA mimetic, E. coli STh (ST-core), was infused into a third group of 32 rats at doses of 17, 32, 66, 133, and 266 nmol/kg. Renal excretory responses to these infusions were slow to develop and long lasting, so clearance periods were continued for 2-3 hr after the termination of the peptide infusion. This protracted time course limited protocols to one dose of one peptide in each rat. A control group of 10 rats received isotonic saline at 10 μl/min in place of the peptide infusion, but was otherwise treated in the same way as the experimental groups.
# Sodium and potassium excretion rates are expressed as absolute values (UNaV and UKV) or factored by filtered load to provide fractional excretion (FENa and FEK). Glomerular filtration rate (GFR) was equated with inulin clearance. The net natriuretic response to peptide infusions was assessed by summing total Na excretion during infusion and post-infusion collection periods in each rat after subtraction of corresponding mean values obtained from the control group. The cumulative net excretion obtained in this way provides a measure of the natriuretic response to each dose of peptide infused. Results from both kidneys were averaged for each rat before calculating group means±sem.
# Group comparisons were made with one way analysis of variance (ANOVA) using peptide doses as column variables. […]
# [2] = target: cultured GC-C-expressing cells (Homo sapiens, UniProt P25092); conditions: cited from earlier work
# Chain of cultured GC-C-expressing cells (P25092 24-1073): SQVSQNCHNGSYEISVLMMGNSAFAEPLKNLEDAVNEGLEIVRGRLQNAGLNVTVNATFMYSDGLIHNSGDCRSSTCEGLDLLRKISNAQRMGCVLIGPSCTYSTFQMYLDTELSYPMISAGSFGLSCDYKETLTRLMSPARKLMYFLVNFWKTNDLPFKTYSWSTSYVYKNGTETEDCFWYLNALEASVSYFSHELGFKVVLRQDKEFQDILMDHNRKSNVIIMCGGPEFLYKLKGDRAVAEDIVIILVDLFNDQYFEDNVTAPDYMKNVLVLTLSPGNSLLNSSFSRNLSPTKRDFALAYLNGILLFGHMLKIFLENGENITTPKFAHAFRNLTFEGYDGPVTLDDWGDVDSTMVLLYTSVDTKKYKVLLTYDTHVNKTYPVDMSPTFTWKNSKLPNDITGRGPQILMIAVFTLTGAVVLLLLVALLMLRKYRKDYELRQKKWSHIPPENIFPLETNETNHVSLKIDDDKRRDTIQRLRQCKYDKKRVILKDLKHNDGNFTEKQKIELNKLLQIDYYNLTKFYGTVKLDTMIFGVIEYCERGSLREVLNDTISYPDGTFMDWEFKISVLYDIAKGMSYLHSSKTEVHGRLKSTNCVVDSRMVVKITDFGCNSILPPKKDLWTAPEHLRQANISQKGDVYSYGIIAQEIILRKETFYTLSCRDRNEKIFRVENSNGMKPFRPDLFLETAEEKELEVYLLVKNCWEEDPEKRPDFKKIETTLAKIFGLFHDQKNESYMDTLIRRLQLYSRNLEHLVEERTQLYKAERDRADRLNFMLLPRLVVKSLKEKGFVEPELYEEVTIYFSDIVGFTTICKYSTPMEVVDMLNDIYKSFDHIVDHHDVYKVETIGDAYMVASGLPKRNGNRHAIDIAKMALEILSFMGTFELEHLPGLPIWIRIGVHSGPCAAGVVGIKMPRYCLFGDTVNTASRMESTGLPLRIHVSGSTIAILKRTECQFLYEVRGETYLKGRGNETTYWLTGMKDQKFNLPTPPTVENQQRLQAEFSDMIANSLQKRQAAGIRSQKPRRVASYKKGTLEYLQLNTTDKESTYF
# anesthetized rats [3] = assay: Renal sodium excretion during and after iv peptide infusion in anesthetized rats; type: in vivo, rat
# Procedure: as §1
# All rats received a continuous intravenous infusion (10 μl/min/100 g BW) of isotonic saline containing FITC-labeled inulin for measurement of inulin clearance. Uncongugated FITC label and small inulin polymers were removed from the inulin solution by overnight dialysis against isotonic saline (SpectraPor 6 dialysis membrane, 1 kDa cutoff-limit, Spectrum Laboratories, Rancho Domingo, Calif.). Undissolved particulates were removed from the solution by filtration through a […] filter before each experiment (Steriflip, Millipore Inc. Billerica, Mass.). At least one hr was allowed for equilibration before the start of urine collections, at which point plasma inulin concentration had stabilized at an average value of 30±3 μg/ml.
# as §2, §3
# The effects of combined infusions of huUgnA and B were investigated in two groups of rats that received 35 nmol/kg of huUgnB together with either 25 nmol/kg (n=5) or 100 nmol/kg of huUgnA (n=5). […]
# [4] = huUgnB 70 nmol, Post-infuse, * p<0.05 vs time control
# [5] = huUgnB 140 nmol, Post-infuse, ** p<0.01 vs time control
# [6] = huUgnB 35 nmol, Post-infuse, *** p<0.005 vs time control
smiles,measurement,setting,value
"CC(C)C[C@H](NC(=O)[C@@H]1CSSC[C@@H]2NC(=O)[C@H](CC(C)C)NC(=O)[C@H](CCC(=O)O)NC(=O)[C@@H](NC(=O)[C@H](CC(=O)O)NC(=O)[C@H](CC(=O)O)NC(=O)[C@@H](N)CC(N)=O)CSSC[C@H](NC(=O)[C@H](C)NC(=O)[C@H](C(C)C)NC(=O)[C@H](CC(N)=O)NC(=O)[C@H](C(C)C)NC2=O)C(=O)N[C@@H]([C@@H](C)O)C(=O)NCC(=O)N1)C(=O)O (single isomer, unassigned) [huUgnB, Asn Asp Asp Cys Glu Leu Cys Val Asn Val Ala Cys Thr Gly Cys Leu]",FEK (fractional potassium excretion),"anesthetized rats [1]; huUgnB 9 nmol, Infuse",30.6 ± 6.1 % of filtered
same,UKV (potassium excretion),"anesthetized rats [1]; huUgnB 9 nmol, Infusion",840 ± 83 nEq/min/g KW
same,FEK (fractional potassium excretion),"anesthetized rats [1]; huUgnB 9 nmol, Post-infuse",34.8 ± 3.1 % of filtered
same,UKV (potassium excretion),"anesthetized rats [1]; huUgnB 9 nmol, Post-infuse",943 ± 82 nEq/min/g KW
same,FEK (fractional potassium excretion),"anesthetized rats [1]; huUgnB 9 nmol, Pre-infuse",23.4 ± 6.0 % of filtered
same,UKV (potassium excretion),"anesthetized rats [1]; huUgnB 9 nmol, Pre-infuse",655 ± 79 nEq/min/g KW
same,FEK (fractional potassium excretion),"anesthetized rats [1]; huUgnB 18 nmol, Infuse",29.6 ± 3.2 % of filtered
same,UKV (potassium excretion),"anesthetized rats [1]; huUgnB 18 nmol, Infusion",860 ± 72 nEq/min/g KW
same,FEK (fractional potassium excretion),"anesthetized rats [1]; huUgnB 18 nmol, Post-infuse",39.2 ± 2.6 % of filtered
same,UKV (potassium excretion),"anesthetized rats [1]; huUgnB 18 nmol, Post-infuse",1014 ± 79 nEq/min/g KW
same,FEK (fractional potassium excretion),"anesthetized rats [1]; huUgnB 18 nmol, Pre-infuse",20.0 ± 2.3 % of filtered
same,UKV (potassium excretion),"anesthetized rats [1]; huUgnB 18 nmol, Pre-infuse",592 ± 71 nEq/min/g KW
same,FEK (fractional potassium excretion),"anesthetized rats [1]; huUgnB 35 nmol, Infuse",32.6 ± 3.7 % of filtered
same,UKV (potassium excretion),"anesthetized rats [1]; huUgnB 35 nmol, Infusion",837 ± 84 nEq/min/g KW
same,FEK (fractional potassium excretion),"anesthetized rats [1]; huUgnB 35 nmol, Post-infuse",38.9 ± 3.0 % of filtered
same,UKV (potassium excretion),"anesthetized rats [1]; huUgnB 35 nmol, Post-infuse",998 ± 85 nEq/min/g KW
same,FEK (fractional potassium excretion),"anesthetized rats [1]; huUgnB 35 nmol, Pre-infuse",25.7 ± 2.4 % of filtered
same,UKV (potassium excretion),"anesthetized rats [1]; huUgnB 35 nmol, Pre-infuse",729 ± 79 nEq/min/g KW
same,FEK (fractional potassium excretion),"anesthetized rats [1]; huUgnB 70 nmol, Infuse",37.7 ± 9.8 % of filtered
same,UKV (potassium excretion),"anesthetized rats [1]; huUgnB 70 nmol, Infusion",1297 ± 209 nEq/min/g KW
same,FEK (fractional potassium excretion),"anesthetized rats [1]; huUgnB 70 nmol, Post-infuse",47.1 ± 5.6 % of filtered
same,UKV (potassium excretion),anesthetized rats [1]; [4],1491 ± 183* nEq/min/g KW
same,FEK (fractional potassium excretion),"anesthetized rats [1]; huUgnB 70 nmol, Pre-infuse",20.4 ± 5.5 % of filtered
same,UKV (potassium excretion),"anesthetized rats [1]; huUgnB 70 nmol, Pre-infuse",791 ± 265 nEq/min/g KW
same,FEK (fractional potassium excretion),"anesthetized rats [1]; huUgnB 140 nmol, Infuse",49.2 ± 3.6 % of filtered
same,UKV (potassium excretion),"anesthetized rats [1]; huUgnB 140 nmol, Infusion",1086 ± 124 nEq/min/g KW
same,UKV (potassium excretion),"anesthetized rats [1]; huUgnB 140 nmol, Post-infuse",1396 ± 89 nEq/min/g KW
same,FEK (fractional potassium excretion),anesthetized rats [1]; [5],58.4 ± 3.5** % of filtered
same,FEK (fractional potassium excretion),"anesthetized rats [1]; huUgnB 140 nmol, Pre-infuse",28.3 ± 0.9 % of filtered
same,UKV (potassium excretion),"anesthetized rats [1]; huUgnB 140 nmol, Pre-infuse",770 ± 78 nEq/min/g KW
same,FEK vs control,"anesthetized rats [1]; post infusion period, only after the highest doses",increased over control levels
same,"potency, fold less potent than the A isomer",[2],more than 100 fold
same,"net cumulative sodium excretion, co-infusion",anesthetized rats [3]; huUgnA 25 nmol/kg combined with huUgnB 35 nmol/kg,did not produce an additive response; also recorded: not different from the natriuresis evoked by A25 or B35 alone
same,"net cumulative sodium excretion, co-infusion",anesthetized rats [3]; huUgnA 100 nmol/kg combined with huUgnB 35 nmol/kg,almost completely suppressed; also recorded: significantly less than the response to B35 alone
same,FENa (fractional sodium excretion),"anesthetized rats [3]; huUgnB 9 nmol, Infuse",0.09 ± 0.02 % of filtered
same,UNaV (sodium excretion),"anesthetized rats [3]; huUgnB 9 nmol, Infusion",134.6 ± 53 nEq/min/g KW
same,FENa (fractional sodium excretion),"anesthetized rats [3]; huUgnB 9 nmol, Post-infuse",0.21 ± 0.04 % of filtered
same,UNaV (sodium excretion),"anesthetized rats [3]; huUgnB 9 nmol, Post-infuse",195 ± 37 nEq/min/g KW
same,FENa (fractional sodium excretion),"anesthetized rats [3]; huUgnB 9 nmol, Pre-infuse",0.05 ± 0.01 % of filtered
same,UNaV (sodium excretion),"anesthetized rats [3]; huUgnB 9 nmol, Pre-infuse",67 ± 17 nEq/min/g KW
same,FENa (fractional sodium excretion),"anesthetized rats [3]; huUgnB 18 nmol, Infuse",0.12 ± 0.03 % of filtered
same,UNaV (sodium excretion),"anesthetized rats [3]; huUgnB 18 nmol, Infusion",155.2 ± 34 nEq/min/g KW
same,FENa (fractional sodium excretion),"anesthetized rats [3]; huUgnB 18 nmol, Post-infuse",0.42 ± 0.08 % of filtered
same,UNaV (sodium excretion),"anesthetized rats [3]; huUgnB 18 nmol, Post-infuse, *** p<0.005 vs time control",538 ± 81*** nEq/min/g KW
same,FENa (fractional sodium excretion),"anesthetized rats [3]; huUgnB 18 nmol, Pre-infuse",0.07 ± 0.01 % of filtered
same,UNaV (sodium excretion),"anesthetized rats [3]; huUgnB 18 nmol, Pre-infuse",83 ± 19 nEq/min/g KW
same,FENa (fractional sodium excretion),"anesthetized rats [3]; huUgnB 35 nmol, Infuse",0.27 ± 0.07 % of filtered
same,UNaV (sodium excretion),"anesthetized rats [3]; huUgnB 35 nmol, Infusion",229.4 ± 47 nEq/min/g KW
same,FENa (fractional sodium excretion),anesthetized rats [3]; [6],0.62 ± 0.10*** % of filtered
same,UNaV (sodium excretion),anesthetized rats [3]; [6],729 ± 73*** nEq/min/g KW
same,FENa (fractional sodium excretion),"anesthetized rats [3]; huUgnB 35 nmol, Pre-infuse",0.12 ± 0.02 % of filtered
same,UNaV (sodium excretion),"anesthetized rats [3]; huUgnB 35 nmol, Pre-infuse",132 ± 40 nEq/min/g KW
same,FENa (fractional sodium excretion),"anesthetized rats [3]; huUgnB 70 nmol, Infuse",0.24 ± 0.14 % of filtered
same,UNaV (sodium excretion),"anesthetized rats [3]; huUgnB 70 nmol, Infusion",285.7 ± 165 nEq/min/g KW
same,FENa (fractional sodium excretion),anesthetized rats [3]; [4],0.52 ± 0.10* % of filtered
same,UNaV (sodium excretion),"anesthetized rats [3]; huUgnB 70 nmol, Post-infuse, *** p<0.005 vs time control",696 ± 151*** nEq/min/g KW
same,FENa (fractional sodium excretion),"anesthetized rats [3]; huUgnB 70 nmol, Pre-infuse",0.08 ± 0.03 % of filtered
same,UNaV (sodium excretion),"anesthetized rats [3]; huUgnB 70 nmol, Pre-infuse",87 ± 31 nEq/min/g KW
same,FENa (fractional sodium excretion),"anesthetized rats [3]; huUgnB 140 nmol, Infuse",0.18 ± 0.05 % of filtered
same,UNaV (sodium excretion),"anesthetized rats [3]; huUgnB 140 nmol, Infusion",212.1 ± 67 nEq/min/g KW
same,FENa (fractional sodium excretion),anesthetized rats [3]; [5],0.65 ± 0.11** % of filtered
same,UNaV (sodium excretion),"anesthetized rats [3]; huUgnB 140 nmol, Post-infuse, *** p<0.005 vs time control",906 ± 170*** nEq/min/g KW
same,FENa (fractional sodium excretion),"anesthetized rats [3]; huUgnB 140 nmol, Pre-infuse",0.08 ± 0.01 % of filtered
same,UNaV (sodium excretion),"anesthetized rats [3]; huUgnB 140 nmol, Pre-infuse",103 ± 8 nEq/min/g KW
same,"ED50, net cumulative sodium excretion over three hours","anesthetized rats [3]; infused over first hour, log agonist response curve, FIG. 6A",19 nmol/kg
same,"ED50, net cumulative sodium excretion","anesthetized rats [3]; log(agonist) vs response fit, p<0.02",about 20 nmol UgnB/kg BW
same,"UNaV time course, ANOVA vs control","anesthetized rats [3]; post infusion periods after 18, 35, 70, and 140 nmol/kg (p<0.001 for all)",significant natriuretic response
same,doses producing significant natriuresis (net excretory values),"anesthetized rats [3]; rat, in vivo",above 9 nmol
same,shape of natriuretic dose-response relationship,"anesthetized rats [3]; rat, in vivo",conventional
